In paper PMC9603946, “On the Sensitivity of the Virion Envelope to Lipid Peroxidation” (Microbiology Spectrum, 2022):
Read-outs that look alike come from different tables or passages of the source.

Tests used:
[1] = system: HSV-1; test: HSV-1 virion infectivity (plaquing efficiency) on Vero cells after virion pretreatment; conditions: Vero; for EC50: Human alphaherpesvirus 1, Vero
Protocol: (§1) The inocula were removed, and the cells were washed and then incubated at 37°C in 5% CO2 until plaques were visible and well-resolved (about 2 days), at which time they were fixed and stained with crystal violet.
(§2) HSV-1 suspensions of 20,000 plaque PFU in 250 μL DMEM were mixed 1:1 with 2-fold serial dilutions of the general peroxidators and were incubated in a water bath for 2 h at 37°C. Next, treated virions were diluted 1:100 before being adsorbed onto cells for 1 h at 37°C. The inocula were removed, and the cells were washed twice with cold DMEM. Infected cells were overlaid with DMEM supplemented with 2% (Vero) or 1% (HFF) methylcellulose and 5% FBS and were incubated at 37°C until plaques were visible and well-resolved, typically in about 2 days. Cell monolayers were fixed and stained with 1% crystal violet in 17% methanol for 18 h at RT. The cells were washed, and the plaques were counted and normalized to those produced by the vehicle treated virions.
(§3) To test the effects of lipid soluble antioxidants on virions, 10 μM vitamin E loaded onto 1% carrier BSA in the dark for 4.5 h at RT was incubated with 10^6 HSV-1 virions for 3 h at 37°C. […] The treated virions were diluted 1:100 before infecting cells. […] The mix was incubated for 2 h at 37°C, diluted 1:100, and used to infect cells. The infectivity of an aliquot of treated virions was tested via a plaque assay.

[2] = system: HSV-1; test: HSV-1 virion infectivity (plaquing efficiency) on HFF cells after virion pretreatment; conditions: for EC50: Human alphaherpesvirus 1, HFF
Protocol: as §1, §2, §3

[3] = system: HSV-1 virions; test: microbe, parasite or virus in culture; design: species or system HSV-1 KOS
Protocol: (§4) The effects of peroxidators have been commonly evaluated against purified lipids and liposomes as a proxy, but they have not been evaluated against virions ([50], [53][–][55]). We instead directly evaluated the extent of virion lipid peroxidation.
To evaluate virion peroxidation using liperfluo, 50 μL DMEM that contained 5 × 10^6 PFU of HSV-1 was added to 96-well plates. Virions were then preloaded with 10 μM liperfluo for 20 min at 37°C. […] Fluorescence was evaluated in a TECAN Infinite M200 Pro at 515 nm excitation and 545 nm emission. Medium containing no virus was used as blank.
(§5) To evaluate the effects of a lipid soluble antioxidant, cells or virions were preloaded with vitamin E-BSA for 3 h at 37°C. Vitamin E-BSA containing medium was removed, and the cells were washed twice with DMEM. Liperfluo (20 or 10 μM for cells or virions, respectively) or C11-Bodipy (1 μM for cells or 0.1 mol% for virions) were preloaded into the cells or virions for 30 min at 37°C.
(§6) To evaluate the effects of water soluble antioxidants, liperfluo (20 μM for cells or 10 μM for virions) or C11-Bodipy (1 μM for cells or 0.1 mol% for virions) were preloaded into the cells or virions for 30 min at 37°C. […] Fluorescence was evaluated in a TECAN Infinite M200 Pro at 515 nm excitation and 545 nm emission for liperfluo or at 550 nm excitation and 580 to 630 nm emission for C11-Bodipy.

[4] = system: Vero cells; test: Vero cell lipid peroxidation probed with liperfluo; assay type: cell-based, African green monkey; conditions: Chlorocebus sabaeus, Vero, Liperfluo probe, read-out: CP50 (the source's name)
Protocol: as §4
To evaluate cell lipid peroxidation using liperfluo, 7.5 × 10^3 Vero cells were seeded into each well of 96-well plates and incubated for 18 h at 37°C in 5% CO2. […] Two hours later, the cells were washed twice, and the fluorescence was evaluated in a TECAN Infinite M200 Pro at 515 nm excitation and 545 nm emission.
as §5, §6

[5] = system: HFF cells; test: Viability of HFF cells infected with AMVN-pretreated virions
Protocol: The inocula were removed, the cells were washed, and the viability was immediately evaluated, mimicking the conditions used to test the direct exposure of the cells to the peroxidators.
After 1 h at 37°C, the cells were washed, and cell viability was evaluated as described.

[6] = system: Vero cells; test: Vero cell lipid peroxidation probed with C11-Bodipy; assay type: cell-based, African green monkey; conditions: for EC50: Chlorocebus sabaeus, Bodipy probe
Protocol: as §4
To evaluate Vero cell lipoperoxidation with C11-Bodipy, 7.5 × 10^3 cells were seeded into each well of 96-well plates and incubated for 18 h at 37°C in 5% CO2 before preloading them with 1 μM C11-Bodipy for 30 min at 37°C. […] Two hours later, the cells were washed twice and lysed with DMSO:isopropanol. Fluorescence was evaluated in a TECAN Infinite M200 Pro at 550 nm excitation and 580 to 630 nm emission with the reading peak at 600 nm.
as §5, §6

[7] = 2 h, no antioxidant, virions treated 2 h at 37°C
[8] = virions preloaded with vitamin E (10 μM, BSA carrier)

CC(C)CC(C)(C#N)N=NC(C)(C#N)CC(C)C (stereo not shown) [AMVN, 2,2′-azobis(2,4-dimethylvaleronitrile)]
EC50 [1, 7]: 800 µM
EC50 [1, 8]: 3800 µM
EC50 ([1]; with vitamin C (10 μM)): 2600 µM
concentration of maximal inhibition of virion infectivity [1]: 5 mM
concentration giving a loss of infectivity of about 30% ([1]; 2 h at 37°C): 0.3 mM
SI, CC50/EC50 ([1]; vitamin C): 1.3
SI, CC50/EC50 ([1]; vitamin E): 1.2
lowest concentration that decreased virion infectivity in the presence of BSA ([1]; with BSA): 2.5 mM
lowest effective concentration on infectivity in the presence of the antioxidants ([1]; with antioxidants): 1.5 mM
concentration from which virion infectivity was affected [2]: 0.7 mM
concentration giving a loss of infectivity of about 30% ([2]; 2 h at 37°C): 0.7 mM
EC50 [2, 7]: 1100 µM
EC50 [2, 8]: 2700 µM
EC50 ([2]; with vitamin C (10 μM)): 1400 µM
SI, CC50/EC50 ([2]; vitamin C): 3.1
SI, CC50/EC50 ([2]; vitamin E): 1.8
EC50 ([3]; Human alphaherpesvirus 1, read-out: VP50, Liperfluo probe, no antioxidant): 1200 µM
EC50 ([3]; Human alphaherpesvirus 1, read-out: VP50, Liperfluo probe, vitamin C): 1200 µM
EC50 ([3]; Human alphaherpesvirus 1, read-out: VP50, Liperfluo probe, vitamin E): 900 µM
EC50 ([4]; no antioxidant): 12600 µM
EC50 ([4]; vitamin C): 11100 µM
EC50 ([4]; vitamin E): 16100 µM
decrease of infected cell viability at the highest AMVN concentration ([5]; AMVN carried by virions): 20 to 30%
concentration from which AMVN carried by virions had minor effects on infected cell viability ([5]; pretreated virions diluted 1:100): 3000 µM
lowest concentration affecting cell lipid peroxidation ([6]; C11-Bodipy (Fig. 8)): 2.5 mM
EC50 ([6]; no antioxidant, read-out: CP50 (concentration of peroxidant that results in 50% peroxidation in cell lipids)): 2100 µM
EC50 ([6]; vitamin C, read-out: CP50 (the source's name)): 1700 µM
EC50 ([6]; vitamin E, read-out: CP50 (the source's name)): 3500 µM
